EC50 and Ki data for two molecules are collected here from ChEMBL document CHEMBL5729315, “Heterocyclylmethylidene derivatives and their use as modulators of mGluR5 receptors” (2022).

As usually defined, the EC50 is the concentration needed to bring the measured effect to its halfway point. What is called Ki is the dissociation constant of the complex between target and ligand, obtained from inhibition or displacement.

In test [1] the target is T1, Metabotropic glutamate receptor 5 (Homo sapiens, UniProt P41594). Description: Fold Shift of Agonist Curve Determination: The PAM potency was evaluated by performing an agonist concentration response curve in the presence of the compounds. The compounds at fixed concentration (0.01 or 0.1 or 1 μM) were applied 10 minutes before the incubation of the agonist (quisqualate or glutamate) dose-response curve. The fold shift was determined as ratio of EC50 agonist curves in presence and in absence of test compound.

The target in test [2] is T1, Metabotropic glutamate receptor 5. Description: Radioligand Binding Assay at Cloned Human mGluR5 Receptor Subtype: Affinity at transmembrane glutamate metabotropic cloned human mGluR5 receptor was evaluated according to the methods of Anderson (Anderson et al., J Pharmacol. Exp. Ther., (2002), Vol. 303(3), pp. 1044-51), with some modifications. Human cloned mGluR5 was obtained by re-suspending CHO T-REx h-mGluR5 cells (50 μg/well) in 20 mM HEPES, 2 mM MgCl2, 2 mM CaCl2, pH 7.4, that then were incubated in a final volume of 1 ml for 60 min at 25° C. with 4 nM [3H]MPEP in the absence or presence of competing drugs. Non-specific binding was determined in the presence of 10 μM MPEP. The incubation was stopped by addition of cold Tris buffer pH 7.4 and rapid filtration through 0.2% polyethyleneimine pretreated Filtermat 1204-401 (Perkin Elmer) filters. The filters were then washed with cold buffer and the radioactivity retained on the filters was counted by liquid scintillation spectrometry (Betaplate 1204 BS-Wallac).

T1 sequence (P41594 whole entry): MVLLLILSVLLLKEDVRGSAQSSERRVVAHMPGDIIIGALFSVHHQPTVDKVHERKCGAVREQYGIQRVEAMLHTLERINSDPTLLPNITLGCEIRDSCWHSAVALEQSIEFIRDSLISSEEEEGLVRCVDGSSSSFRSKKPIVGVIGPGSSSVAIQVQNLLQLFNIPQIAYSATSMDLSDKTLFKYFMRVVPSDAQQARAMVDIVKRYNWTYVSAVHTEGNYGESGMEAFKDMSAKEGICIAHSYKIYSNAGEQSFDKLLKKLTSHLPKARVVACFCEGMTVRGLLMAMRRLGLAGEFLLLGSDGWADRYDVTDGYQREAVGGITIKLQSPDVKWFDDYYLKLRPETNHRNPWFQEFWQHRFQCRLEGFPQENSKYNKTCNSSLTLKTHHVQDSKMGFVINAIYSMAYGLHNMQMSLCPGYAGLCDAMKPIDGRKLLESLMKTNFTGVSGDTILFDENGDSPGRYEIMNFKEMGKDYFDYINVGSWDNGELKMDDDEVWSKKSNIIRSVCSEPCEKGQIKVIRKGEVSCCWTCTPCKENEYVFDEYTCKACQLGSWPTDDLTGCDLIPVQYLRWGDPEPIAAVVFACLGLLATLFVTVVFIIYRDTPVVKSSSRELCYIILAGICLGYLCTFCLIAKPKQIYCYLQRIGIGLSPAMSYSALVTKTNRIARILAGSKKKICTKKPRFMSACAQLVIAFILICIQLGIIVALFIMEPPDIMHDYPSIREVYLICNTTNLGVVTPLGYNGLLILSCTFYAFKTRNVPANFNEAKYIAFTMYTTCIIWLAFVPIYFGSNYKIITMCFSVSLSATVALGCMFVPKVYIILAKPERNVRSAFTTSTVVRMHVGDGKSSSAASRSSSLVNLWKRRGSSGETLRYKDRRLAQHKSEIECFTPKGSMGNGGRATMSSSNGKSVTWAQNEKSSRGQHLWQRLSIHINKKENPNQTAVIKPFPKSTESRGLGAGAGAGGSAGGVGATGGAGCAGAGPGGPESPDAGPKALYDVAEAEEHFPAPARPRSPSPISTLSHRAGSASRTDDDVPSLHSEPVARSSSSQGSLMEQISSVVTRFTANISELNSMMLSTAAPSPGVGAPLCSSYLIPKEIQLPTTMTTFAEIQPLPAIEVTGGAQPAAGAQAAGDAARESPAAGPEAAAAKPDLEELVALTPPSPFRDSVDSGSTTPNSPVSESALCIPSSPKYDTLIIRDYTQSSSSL

On to `COc1cc(OC)nc(C(=O)N2CC/C(=C\C#Cc3cccc(Cl)c3)C(C)(C)C2)n1`, for which, in test [1], the 50% effective concentration (EC50) amounted to 0.0517 µM. In addition, the Ki in test [2] is 0.00224 µM. In the case of `Cc1cccc(C#CC=C2CC(C)(C)NC(C)(C)C2)n1`, the Ki in test [2] is 0.0269 µM.
